GI50 and TGI data for eight compounds are collected here from PubChem BioAssay (NCI).

Structures are written as SMILES.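 Five compound concentrations were applied to cells in 96-well plates for 48 hours; endpoints were derived by simple linear interpolation of the resulting dose-response curve. The concentration for 50% growth inhibition is given as GI50. TGI is the concentration that stops growth completely.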

Among the test systems are SN12C renal; SR leukemia; A498 renal; OVCAR-3 ovarian; MALME-3M melanoma; UO-31 renal; KM12 colon; HCT-116 colon; HCC-2998 colon; RPMI-8226 leukemia.
What all share (assay): NCI tumour cell line growth inhibition, 48 h

Take `COc1ccc(CC(=O)c2ccc(O)cc2O)cc1`: the GI50 is 93.2 µM in the assay with SN12C renal; more than 100 µM with SR leukemia; 29.3 µM in the assay on A498 renal; 61.5 µM in the assay on OVCAR-3 ovarian; 45.2 µM with MALME-3M melanoma; 15.4 µM in the assay with UO-31 renal. The GI50 in the assay on KM12 colon was more than 100 µM; in the assay with HCT-116 colon, more than 100 µM; in the assay with HCC-2998 colon, more than 100 µM; with RPMI-8226 leukemia, 34 µM. In addition, the TGI in the assay with SN12C renal, with SR leukemia, with A498 renal, in the assay on OVCAR-3 ovarian, in the assay with MALME-3M melanoma and with UO-31 renal was more than 100 µM throughout. Also, the TGI in the assay with KM12 colon, with HCT-116 colon, with HCC-2998 colon and with RPMI-8226 leukemia was more than 100 µM in each case.

In the case of `Nc1c(C(=O)c2cccc(C#CCO)c2)cnn1-c1ccc(F)cc1`, the GI50 is more than 25 µM with SN12C renal; more than 25 µM in the assay with SR leukemia; more than 18.5 µM in the assay with A498 renal; more than 25 µM in the assay on OVCAR-3 ovarian; more than 25 µM in the assay with MALME-3M melanoma; more than 25 µM in the assay with UO-31 renal. Besides, the GI50 with KM12 colon, with HCT-116 colon, with HCC-2998 colon and in the assay with RPMI-8226 leukemia was more than 25 µM throughout. The TGI in the assay on SN12C renal, in the assay with SR leukemia, in the assay with A498 renal, in the assay on OVCAR-3 ovarian, with MALME-3M melanoma and in the assay on UO-31 renal was more than 25 µM throughout. The TGI in the assay on KM12 colon, with HCT-116 colon, in the assay with HCC-2998 colon and in the assay with RPMI-8226 leukemia was more than 25 µM each time.

Turning to `CC[C@H](CO)Nc1nc(NCc2ccccc2)c2ncn(C(C)C)c2n1`, the GI50 in the assay with SN12C renal was 27 µM; in the assay on A498 renal it was 30.1 µM; with OVCAR-3 ovarian, 12.9 µM; with UO-31 renal it was 16.7 µM; with KM12 colon it was 10.6 µM; with HCT-116 colon, 11.1 µM. Also, the GI50 with HCC-2998 colon was 24.7 µM. For the same compound, the TGI in the assay with SN12C renal is more than 100 µM; in the assay on SR leukemia, more than 79.8 µM; in the assay on A498 renal, more than 88.7 µM; in the assay on OVCAR-3 ovarian it was more than 67.4 µM; with MALME-3M melanoma, 50 µM; in the assay with UO-31 renal, 96.9 µM. The TGI in the assay on KM12 colon is 60.2 µM; with HCT-116 colon it was more than 100 µM; in the assay with HCC-2998 colon, more than 75.2 µM; with RPMI-8226 leukemia it was more than 77.8 µM.

With `COC(=N)c1c(N)[n+]([O-])c2ccc(F)cc2[n+]1[O-]`, the GI50 in the assay with SN12C renal was more than 100 µM; in the assay on SR leukemia it was 47.9 µM; in the assay with A498 renal it was 40.4 µM; with OVCAR-3 ovarian, more than 100 µM; with MALME-3M melanoma it was 66.3 µM; in the assay with UO-31 renal, more than 100 µM. Moreover, the GI50 is more than 100 µM in the assay on KM12 colon, more than 100 µM with HCT-116 colon, more than 100 µM in the assay with HCC-2998 colon and 81.2 µM with RPMI-8226 leukemia. The TGI in the assay on SN12C renal, in the assay with SR leukemia, in the assay with A498 renal, in the assay with OVCAR-3 ovarian, in the assay with MALME-3M melanoma and in the assay with UO-31 renal was more than 100 µM each time. For the same compound, the TGI with KM12 colon, with HCT-116 colon, in the assay with HCC-2998 colon and in the assay on RPMI-8226 leukemia was more than 100 µM in each case.

As to `COC(=O)Nc1nc2ccc(Oc3cccc(NC(=O)Nc4cc(C(F)(F)F)ccc4F)c3)cc2[nH]1`, the GI50 with SN12C renal is 15.1 µM; in the assay on SR leukemia, 10.2 µM; in the assay on A498 renal, 9.46 µM; in the assay with OVCAR-3 ovarian, 14 µM; in the assay on MALME-3M melanoma it was 6.04 µM; in the assay with UO-31 renal, 14.3 µM. Further, the GI50 in the assay on KM12 colon was 7.57 µM; in the assay with HCT-116 colon, 7.71 µM; with HCC-2998 colon, 13.2 µM; with RPMI-8226 leukemia it was more than 20.8 µM. For the same compound, the TGI in the assay on SN12C renal, in the assay on SR leukemia, with A498 renal, in the assay on OVCAR-3 ovarian, in the assay with MALME-3M melanoma and with UO-31 renal was more than 25 µM each time. Moreover, the TGI with KM12 colon, in the assay with HCT-116 colon, in the assay on HCC-2998 colon and in the assay with RPMI-8226 leukemia was more than 25 µM in each case.

As to `COc1ccc(N(/C=C/C(=O)C(F)(F)F)CC(=O)c2ccc(F)cc2)cc1`, the GI50 with SN12C renal was 14.7 µM; in the assay with SR leukemia, 19.1 µM; with A498 renal, 14.2 µM; in the assay on OVCAR-3 ovarian it was 21.2 µM; in the assay with MALME-3M melanoma, 16.5 µM; in the assay on UO-31 renal, 36.3 µM. Further, the GI50 is 21.6 µM with KM12 colon, 14.7 µM with HCT-116 colon, 21.4 µM in the assay with HCC-2998 colon and 15.2 µM in the assay with RPMI-8226 leukemia. Besides, the TGI is 33.8 µM in the assay on SN12C renal; 44.3 µM in the assay with SR leukemia; 37.8 µM with A498 renal; 48.6 µM with OVCAR-3 ovarian; 41.4 µM in the assay on MALME-3M melanoma; more than 100 µM in the assay with UO-31 renal. Also, the TGI in the assay on KM12 colon came out at 56 µM; in the assay with HCT-116 colon, 27.9 µM; with HCC-2998 colon, 38.9 µM; in the assay with RPMI-8226 leukemia, 47.3 µM.

For `O=C1C(SCCO)=C(SCCO)C(=O)N1c1ccc(-c2ccccc2)cc1`, the GI50 in the assay with SN12C renal was 5.47 µM; in the assay on SR leukemia, 0.182 µM; in the assay with A498 renal, 18 µM; with OVCAR-3 ovarian, 0.897 µM; with MALME-3M melanoma, 1.61 µM; in the assay on UO-31 renal, 1.54 µM. For the same compound, the GI50 with KM12 colon is 7.55 µM; with HCT-116 colon, 0.536 µM; in the assay with HCC-2998 colon it was 3.65 µM; in the assay with RPMI-8226 leukemia, 0.845 µM. Further, the TGI is 19.6 µM in the assay with SN12C renal; more than 100 µM in the assay on SR leukemia; 37.9 µM in the assay with A498 renal; 2.32 µM with OVCAR-3 ovarian; 5.31 µM with MALME-3M melanoma; 2.97 µM with UO-31 renal. The TGI was found to be 20.8 µM in the assay with KM12 colon, 1.24 µM with HCT-116 colon, 9.87 µM in the assay on HCC-2998 colon and 4.6 µM with RPMI-8226 leukemia.

Turning to `OCCn1cnc2c(SCc3ccccc3)ncnc21`, the TGI with SN12C renal, in the assay on SR leukemia, in the assay on A498 renal, in the assay with OVCAR-3 ovarian, in the assay with MALME-3M melanoma and with UO-31 renal was more than 100 µM each time. The TGI in the assay on KM12 colon, with HCT-116 colon, in the assay on HCC-2998 colon and in the assay with RPMI-8226 leukemia was more than 100 µM throughout.
